Experimental findings from article PMC9704087, “Solid lipid nanoparticle as an effective drug delivery system of a novel curcumin derivative: formulation, release in vitro and pharmacokinetics in vivo” (Pharmaceutical Biology, 2022) are described below.

The nature of data set [1]: Pharmacokinetic study after intravenous injection. The class given is in vivo. As to conditions: male, Sprague Dawley, rat, SD rats, 5 mg/kg intravenous, plasma, n = 5. Here is the method: Sprague Dawley (SD) male rats aged 8 weeks weighing 250–300 g were provided by the Laboratory Animal Center of Southwest Medical University and were placed in a pathogen-free environment, and had free access to food and water. Studies involving animals were approved (approval number: SCXK (Chuan) 2013-17) by the Ethics Committee of Southwest Medical University.
Rats that were used for the pharmacokinetic study were fasted for more than 12 h before use and had free access to water. Rats were randomly divided into two groups (n = 5), namely, the Cur group and CUD-SLN group, Rats in both groups were injected intravenously with 5 mg/kg of corresponding drugs. Approximately, 200 µL of blood was collected using a heparin-coated syringe at 2, 5, 15 and 30 min and at 1, 2, 4, 6, 8, 12, 24, 30, 36, 48, 54, 60, 72 and 84 h after injection. Blood was centrifuged for 10 min at 3000 rpm, and plasma was obtained. Furthermore, 50 µL of acetate buffer (pH 3.5) was added to 100 μL of plasma. After vortexing for 1 min, 0.5 mL of extract solvent (methanol–ethyl acetate 10:90, v/v) was added to the mixture, the mixture was vortexed again for 3 min, followed by centrifugation for 3 min at 8000 rpm. Then, 0.5 mL of supernatant was removed and evaporated with nitrogen flow. Next, 200 μL of reconstituted solvent (acetonitrile contains 0.1% phosphoric acid) was added to the dry residue, vortexed for 4 min, sonicated for 4 min, and centrifuged for 10 min at 10,000 rpm, A total of 50 μL of the supernatant was removed for the high-performance liquid chromatography (HPLC) (1260 Infinity II, Agilent Technologies, Santa Clara, CA) and calculated with the standard curve (Cur: A = 157.21 C + 0.148, R^2=0.9991, range: (0.02, 12) μg/mL; CUD: A = 18.159 C + 0.4884, R^2=0.9998, range: (0.02, 5) μg/mL; A = 46.552 C – 179.81, R^2=0.9997, range: (5, 160) μg/mL). […] The detection wavelength was 409 nm (Guo et al. [2020]).
(§1) Evaluation of the comprehensive design experiment was performed by SPSS 17.0 software (SPSS Inc., Chicago, IL). Fitting of the release curve was performed by Origin 8.0 software. Pharmacokinetic data were processed by DAS 2.1.1 software to obtain relevant pharmacokinetic parameters. Student’s t-test for two groups and one-way ANOVA for multiple groups were employed for the data analysed. p < 0.05 was considered statistically significant.

Data set [2] is described as follows: In vitro drug release, dialysis membrane diffusion technique. In kind it is physicochemical. As to the method:
The release of CUD-SLN and free CUD in vitro was studied using a dialysis membrane diffusion technique (MWCO 8000–14,000) (He et al. [2020]). Due to the low solubility of CUD in the buffer, Tween 80 was added to satisfy the leaking conditions. A total of 500 mL of PBS buffer with 10% w/v Tween 80 (pH 7.35) was used as a release medium. Next, 2 mL of freshly prepared CUD-SLN (1 mg/mL) was transferred to the dialysis bags, and 2 mg free CUD (suspended in 2 mL 0.5% w/v CMC-Na) was transferred to dialysis bags as a control. The test bags were immersed in a release medium at 37 ± 0.5 °C and stirred at 100 rpm using a dissolution apparatus (ZRS-8G, Intelligent dissolution tester, ZRS-8G, Tianjin, China). An aliquot of the sample (1 mL) was removed from the release medium at 15 and 30 min and 1, 2, 4, 6, 8, 12, 24 and 48 h. After each sampling, the blank dissolution medium was replenished with the same temperature and volume. Removed samples were filtered through a 0.22 μm filter, the CUD content was analysed by a UV–vis spectrophotometer, and the analytical method described before. The in vitro release data of the drug were fitted with the zero-order release equation, the first-order release equation and the Higuchi equation (Ma et al. [2019]).
as §1

A word on the AUC(0-inf): it is the area under the concentration-time curve extrapolated to infinity. A higher AUC(0-inf) goes with more exposure. The AUC(0-t) is the area under the concentration-time curve up to a stated or last time point. Read a low AUC(0-t) as less exposure. Usually Cmax stands for the maximum level reached in the sampled fluid or tissue. By Tmax is commonly meant the time from dosing to the highest level. As usually defined, the clearance is the rate of elimination divided by the concentration. `COc1cc(/C=C/C(=O)CC(=O)/C=C/c2ccc(O)c(OC)c2)ccc1O` [Cur, Curcumin]: in data set [1], the AUC(0-inf) was 4880 ng·h/mL, the exposure AUC(0-t) was 4600 ng·h/mL, the Cmax was determined as 332 ng/mL and the Tmax was 6 h. Also, the clearance in data set [1] (read-out: CLz (clearance) (converted)) was 171 mL/min/kg. The MRT last in data set [1] (read-out: MRT0–t) turned out to be 9.53 h. Besides, the MRT inf in data set [1] (read-out: MRT0–∞) worked out at 10.8 h. Besides, the half-life in data set [1] (read-out: t1/2z (half-life) (converted)) was 5.6 h.
With “Carbonic acid 17-(1,5-dimethyl-hexyl)-10,13-dimethyl-2,3,4,7,8,9,10,11,12,13,14,15,16,17-tetradecahydro-1H-cyclopenta[a]phenanthren-3-yl ester 4-[7-(4-hydroxy-3-methoxy-phenyl)-3,5-dioxo-hepta-1,6-dienyl]-2-methoxy-phenyl ester [CUD]”, the “cumulative release of CUD at 48 h” value in data set [2] (PBS with 10% w/v Tween 80, pH 7.35, 37 °C, 100 rpm, n = 6) is reported as 60.24 ± 5.08%. Moreover, in data set [2] (fit of in vitro release data), the “First-order equation k1” value is recorded as 0.2258, the “Higuchi's equation kh” value is 8.6574 and the “Zero order equation k0” value came to 1.0410.
